# Laboratory results: patent US5030458A, “Method for preventing diet-induced carnitine deficiency in domesticated dogs and cats” (priority 1989, dated 1991)
# Values joined by “and” are separate entries in the source; they are usually repeats but may differ in a detail not shown here. Identical values can stand only once. “Also recorded” adds a separate entry of the source. Like-named read-outs stand apart in the source and are kept apart here.
# How the values were obtained:
# [1] = cited from earlier work
# [2] = cited from earlier work; remark: listed apart in the source
# [3] = Plasma carnitine concentrations in Greyhound dogs on commercial dog food supplemented with L-Carnitine (ground beef); assay type: in vivo; conditions: for concentration at 168 h / concentration at 336 h: dog, plasma, po, 350 mg/animal/day
# Protocol: Six apparently healthy Greyhound dogs were determined to be normal by physical examination, fecal flotation, complete blood count, serum biochemical profile, ECG, and echocardiography. They were fed a standard commercial dog food diet free choice for a one-month control period. Control plasma samples (as well as subsequent test samples) were obtained following an eight-hour fast on two consecutive days for analysis of total, free, and esterified L-Carnitine concentration. The average of the plasma L-Carnitine concentration on two consecutive days was taken for each dog and each measuring period. Following the control period, all of the dogs were continued for two weeks on the standard commercial dog food diet supplemented with L-Carnitine. The L-Carnitine supplement was in the form of 0.5 kg per dog per day of raw frozen lean ground beef. This was equivalent to a daily supplement of 350 mg. of L-Carnitine per dog. Plasma samples were drawn on days 7 and 8 (averaged for the one-week measurement) and days 13 and 14 (averaged for the two-week measurement) for L-Carnitine analysis. Differences between the means of each test period and control were determined by the Student's t test.
# [4] = rats; cited from earlier work
# [5] = Renal reabsorption of L-Carnitine in dogs; assay type: in vivo, dog
# [6] = test system: fatty acid oxidation in muscle homogenates; conditions: certain L-Carnitine deficient patients; cited from earlier work
# [7] = human; approaching; cited from earlier work
# cardiomyopathy [8] = conditions: restoration toward normal of deficient L-Carnitine levels; hamsters; cited from earlier work
# cardiomyopathy [9] = conditions: restoration toward normal of deficient L-Carnitine levels; dogs; cited from earlier work
# [10] = mammalian species; cited from earlier work
# [11] = Changes in serum L-Carnitine following oral administration of gamma-butyrobetaine; assay type: in vivo; conditions: administering GBB to a dog
# From the text: Changes in serum L-Carnitine following oral
# administration of 5 grams of gamma-butyro-betaine. Amounts
# [12] = test system: carnitine deficiency syndromes; conditions: humans; U.S. Pat. No. 4,382,092; cited from earlier work
smiles,measurement,setting,value
C[N+](C)(C)C[C@H](O)CC(=O)[O-] [L-Carnitine],"Plasma total carnitine, mean",[1]; human females,51.5 ± 11.6 µM
same,"Plasma total carnitine, mean",[1]; human males,59.3 ± 11.9 µM
same,Solubility in water,[2],extremely soluble in water
same,concentration,"[3]; Week 1, individual dogs 1-6, ground beef 0.5 kg/day/dog (350 mg L-Carnitine/day), 10080 min, read-out: Plasma carnitine concentration, Free",60.5 µM and 52.5 µM and 55.6 µM and 56 µM and 51.7 µM
same,concentration,"[3]; Week 1, individual dogs 1-6, ground beef 0.5 kg/day/dog (350 mg L-Carnitine/day), 10080 min, read-out: Plasma carnitine concentration, Total",70.7 µM and 57.2 µM and 63.1 µM and 58.1 µM and 56.3 µM
same,concentration,"[3]; Week 2, individual dogs 1-6, ground beef 0.5 kg/day/dog (350 mg L-Carnitine/day), 20160 min, read-out: Plasma carnitine concentration, Free",62.2 µM and 52.7 µM and 52 µM and 58.5 µM and 41 µM
same,concentration,"[3]; Week 2, individual dogs 1-6, ground beef 0.5 kg/day/dog (350 mg L-Carnitine/day), 20160 min, read-out: Plasma carnitine concentration, Total",65.7 µM and 58.1 µM and 56.3 µM and 66.3 µM and 43.2 µM
same,Plasma total L-Carnitine concentration (in words),[3]; diet supplemented with L-Carnitine,significantly increased; also recorded: stabilizes in a range that is considered normal; also recorded: dramatically increase the plasma concentration of L-Carnitine in dogs
same,concentration at 168 h,"[3]; Week 1, average of 6 dogs, S.D. ±3.5, ** p ≤ 0.01 vs control, read-out: Plasma carnitine concentration, Free, AVG",55.9 µM
same,concentration at 168 h,"[3]; Week 1, average of 6 dogs, S.D. ±6.5, * p ≤ 0.05 vs control, read-out: Plasma carnitine concentration, Total, AVG",62.5 µM
same,concentration at 168 h,"[3]; Week 1, individual dogs 1-6, ground beef 0.5 kg/day/dog (350 mg L-Carnitine/day), read-out: Plasma carnitine concentration, Free",58.9 µM
same,concentration at 168 h,"[3]; Week 1, individual dogs 1-6, ground beef 0.5 kg/day/dog (350 mg L-Carnitine/day), read-out: Plasma carnitine concentration, Total",70.1 µM
same,concentration at 336 h,"[3]; Week 2, average of 6 dogs, S.D. ±8.0, * p ≤ 0.05 vs control, read-out: Plasma carnitine concentration, Free, AVG",51.9 µM
same,concentration at 336 h,"[3]; Week 2, average of 6 dogs, S.D. ±8.6, read-out: Plasma carnitine concentration, Total, AVG",57 µM
same,concentration at 336 h,"[3]; Week 2, individual dogs 1-6, ground beef 0.5 kg/day/dog (350 mg L-Carnitine/day), read-out: Plasma carnitine concentration, Free",44.9 µM
same,concentration at 336 h,"[3]; Week 2, individual dogs 1-6, ground beef 0.5 kg/day/dog (350 mg L-Carnitine/day), read-out: Plasma carnitine concentration, Total",52.4 µM
same,"Plasma carnitine concentration, average",[4],56.5 ± 2.2 µM
same,"Renal reabsorption, average",[5],approximately 75%
same,Fatty acid oxidation in muscle homogenates,[6],restoration to normal of fatty acid oxidation
same,Renal reabsorption,[7],~100%
same,Myocardial function,cardiomyopathy [8],improved myocardial function
same,Myocardial function,cardiomyopathy [9],improved myocardial function
same,L-Carnitine concentration in cardiac and skeletal muscle relative to serum,[10],much higher than in serum
"C[N+](C)(C)CCCC(=O)[O-] [gamma-butyro-betaine, gamma-butyrobetaine]",Effect on serum L-Carnitine (in words),[11],produces a concomitant use in serum L-Carnitine
same,Alleviation of carnitine deficiency syndromes,[12],used successfully to alleviate carnitine deficiency syndromes in humans
